Test results published in US8598190B2, “3H-imidazo [4, 5-C] pyridine-6-carboxamides as anti-inflammatory agents” (Boehringer Ingelheim International GmbH, priority 2008, dated 2013).

Target: T1, recombinant human mPGES-1 (Homo sapiens, UniProt O14684)
T1 construct: made in house; host or cells: Rosetta E. coli (microsomal/membrane fraction)
T1 sequence (O14684 1-152): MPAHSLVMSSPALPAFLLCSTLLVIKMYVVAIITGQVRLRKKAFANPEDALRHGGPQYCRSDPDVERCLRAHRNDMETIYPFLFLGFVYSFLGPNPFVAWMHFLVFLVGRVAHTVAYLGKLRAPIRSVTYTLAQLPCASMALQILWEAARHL
Assay: mPGES-1 inhibition test (microsomes, HTRF detection of PGE2)
Format: biochemical
Protocol: Microsomes from Rosetta E. coli bacteria expressing recombinant human mPGES-1 is dissolved in 0.1 M KPi pH 7.4 buffer containing 2.5 mM GSH. 50 μl of the enzyme is subsequently dispensed in a 384-well plate. 0.5 μl of the inhibitor dissolved in DMSO at is thereafter added to each well and incubated for 25 minutes at room temperature.
Subsequently, 2 μl of PGH2 dissolved in an appropriate solvent is added to each well and after one minute the acidified stop solution containing FeCl2 is added. 4 μl of the total volume is transferred to a separate plate and diluted 750-fold in two separate steps before HTRF detection of PGE2.
The HTRf detection is performed by the use of a commercially available kit from CisBio essentially according to the manufacturer's protocol. Briefly, 10 μl of the diluted sample is transferred to a white 384-well plate. 5 μl of d2 and 5 μl Eu3+-Cryptate labeled anti-PGE2 is added to each well containing samples by the use of a Multidrop. The plate is covered with a plastic self-adhesive film, centrifuged at 1200 rpm for 1 minute and subsequently stored at +4° C. over night.
After over night incubation the fluorescence is measured by the use of an appropriate microplate reader. The fluorescence of europium cryptate, and d2 are measured using the following excitation and emission wavelength, europium cryptate: λmax^ex=307 nm, λmax^em=620 nm and d2: λmax^ex=620 nm, λmax^em=665 nm), respectively. The extent of the specific FRET is measured as a ratio of the emission intensity at 665 nm vs. that at 620 nm. A standard curve using synthetic PGE2 is used to quantify the amount of PGE2 in unknown samples.

O=C(Nc1cc(C(F)(F)F)ccn1)c1cc2[nH]c(Nc3c(Cl)cc(F)cc3Cl)nc2cn1 [Example 730, 2-(2,6-Dichloro-4-fluoro-phenylamino)-N-(4-trifluoromethyl-pyridin-2-yl)-1H-imidazo[4,5-c]pyridine-6-carboxamide] was tested, and the inhibition at 10 µM was 100%.
Cc1cnc(NC(=O)c2cc3[nH]c(Nc4c(Cl)cccc4Cl)nc3cn2)cc1C [Example 717, 2-(2,6-Dichlorophenylamino)-N-(4,5-dimethyl-pyridin-2-yl)-1H-imidazo[4,5-c]pyridine-6-carboxamide] was tested, and the inhibition at 10 µM was 100%.
In the case of Cn1c(Nc2c(F)cccc2Cl)nc2cc(C(=O)NCc3ncccc3C(F)(F)F)ncc21 [Example 504, 2-(2-Chloro-6-fluorophenylamino)-3-methyl-N-((3-trifluoromethyl-pyridin-2-yl)-methyl)-3H-imidazo[4,5-c]pyridine-6-carboxamide], the inhibition at 10 µM is reported as 100%.
With Cn1c(Nc2c(Cl)cccc2Cl)nc2cc(C(=O)Nc3cc(C(F)(F)F)ccn3)ncc21 [Example 364, 2-(2,6-Dichlorophenylamino)-3-methyl-N-(4-trifluoromethyl-pyridin-2-yl)-3H-imidazo[4,5-c]pyridine-6-carboxamide] the inhibition at 10 µM was 100%.
Cc1cc(NC(=O)c2cc3nc(Nc4c(Cl)cccc4Cl)n(C)c3cn2)ncc1Cl [Example 726, 2-(2,6-Dichlorophenylamino)-3-methyl-N-(5-chloro-4-methyl-pyridin-2-yl)-3H-imidazo[4,5-c]pyridine-6-carboxamide] was tested, and the inhibition at 10 µM was 100%.
For O=C(Nc1cc(OC2CCOC2)ccn1)c1cc2[nH]c(Nc3c(Cl)cccc3Cl)nc2cn1 (stereo not shown) [Example 495, 2-(2,6-Dichlorophenylamino)-N-(4-(tetrahydrofuran-3-yl-oxy)-pyridin-2-yl)-1H-imidazo[4,5-c]pyridine-6-carboxamide], the inhibition at 10 µM was 86%.
With O=C(Nc1cc(C(F)(F)F)ccn1)c1cc2[nH]c(Nc3c(F)cccc3Cl)nc2cn1 [Example 729, 2-(2-Chloro-6-fluoro-phenylamino)-N-(4-trifluoromethyl-pyridin-2-yl)-1H-imidazo[4,5-c]pyridine-6-carboxamide] the inhibition at 10 µM was 100%.
For O=C(Nc1cc(C(F)(F)F)ccn1)c1cc2[nH]c(Nc3c(Cl)cccc3C(F)(F)F)nc2cn1 [Example 728, 2-(2-Chloro-6-trifluoromethyl-phenylamino)-N-(4-trifluoromethyl-pyridin-2-yl)-1H-imidazo[4,5-c]pyridine-6-carboxamide], the inhibition at 10 µM was 98%.
Work on O=C(Nc1ccc(C(F)(F)F)cn1)c1cc2[nH]c(Nc3c(Cl)cccc3Cl)nc2cn1 [Example 720, 2-(2,6-Dichlorophenylamino)-N-(5-trifluoromethyl-pyridin-2-yl)-1H-imidazo[4,5-c]pyridine-6-carboxamide] yielded an inhibition at 10 µM of 100%.
For O=C(Nc1cc(C(F)(F)F)cc(C2CC2)n1)c1cc2[nH]c(Nc3c(Cl)cncc3Cl)nc2cn1 [Example 740, 2-(3,5-Dichloro-pyridin-4-yl-amino)-N-(6-cyclopropyl-4-trifluoromethyl-pyridin-2-yl)-1H-imidazo[4,5-c]pyridine-6-carboxamide], the inhibition at 10 µM was 100%.
For O=C(NC1CCCCC1)c1cc2[nH]c(Nc3c(Cl)cccc3Cl)nc2cn1 [Example 137, 2-(2,6-Dichloro-phenylamino)-3H-imidazo[4,5-c]pyridine-6-carboxylic acid-cyclohexyl-amide], the inhibition at 10 µM was 100%.
Cc1cnc(NC(=O)c2cc3nc(Nc4c(Cl)cccc4Cl)n(C)c3cn2)cc1C [Example 724, 2-(2,6-Dichlorophenylamino)-3-methyl-N-(4,5-dimethyl-pyridin-2-yl)-3H-imidazo[4,5-c]pyridine-6-carboxamide] was tested, and the inhibition at 10 µM was 100%.
In the case of O=C(Nc1ccc(Br)cc1)c1cc2[nH]c(Nc3c(Cl)cncc3Cl)nc2cn1 [Example 732, 2-(3,5-Dichloro-pyridin-4-yl-amino)-N-(4-bromo-phenyl)-1H-imidazo[4,5-c]pyridine-6-carboxamide], the inhibition at 10 µM is reported as 100%.
